What all share (assay): Antibacterial activities, MIC
Type in all cases: cell-based

In assay [1] the test system is Staphylococcus aureus 209-P.
For another assay, the system named is Escherichia coli NIHJ.
Assay [2] concerns Pseudomonas aeruginosa EP-01. The following applies: EP01.
For assay [3], the system named is Klebsiella pneumoniae EK-6. The conditions noted are these: EK6.
In assay [4] the test system is Serratia marcescens ES-75. The conditions noted are these: ES75.
The test system of another assay is Morganella morgani EP-14. The following applies: EP14.

Values after ≈ are worked out from the molar mass of the structure shown.

Data on 3 compounds can be found in patent US5128465A, “Process for the preparation of cephem derivatives and intermediates therefor” (Eisai Co., Ltd., priority 1988, dated 1992).

Turning to `C[C@H](C(N)=O)[N+](C)(C)C/C=C/C1=C(C(=O)[O-])N2C(=O)[C@@H](NC(=O)/C(=N\OCF)c3nsc(N)n3)[C@H]2SC1` [Example 18, 7β-[2-(5-Amino-1,2,4-Thiadiazol-3-yl)-(Z)-2-Fluoromethyoxyiminoacetamido]-3-[(E)-3-[((R)-1Carbamoylethyl)dimethylammonio]-1-propenyl]-3-Cephem-4-Carboxylate], the MIC – broadly, the lowest concentration found to suppress growth – in assay [1] was 0.2 µg/mL (≈ 0.359 µM); against Escherichia coli NIHJ it was not above 0.025 µg/mL; in assay [2] it was 1.56 µg/mL (≈ 2.8 µM); in assay [3] it was not above 0.025 µg/mL; in assay [4] it was 0.1 µg/mL (≈ 0.18 µM); in the assay with Morganella morgani EP-14, not above 0.025 µg/mL.
For `C[N+](C)(C/C=C/C1=C(C(=O)[O-])N2C(=O)[C@@H](NC(=O)/C(=N\OCF)c3nsc(N)n3)[C@H]2SC1)[C@H](CO)C(N)=O` [Example 10, 7β-[2-(5-Amino-1,2,4-Thiadiazol-3-yl)-(Z)-2-fluoromethoxyiminoacetamido]-3-[(E)-3-[((R)-1-Carbamoyl-2-Hydroxyethyl)Dimethylammonio]-1-propenyl]-3-Cephem-4-Carboxylate], the MIC is 0.2 µg/mL (≈ 0.349 µM) in assay [1]; not above 0.025 µg/mL with Escherichia coli NIHJ; 0.8 µg/mL (≈ 1.4 µM) in assay [2]; not above 0.025 µg/mL in assay [3]; not above 0.025 µg/mL in assay [4]; not above 0.025 µg/mL with Morganella morgani EP-14.
`CC[N+](C)(C/C=C/C1=C(C(=O)[O-])N2C(=O)[C@@H](NC(=O)/C(=N\OCF)c3nsc(N)n3)[C@H]2SC1)CC(N)=O` (stereo partly drawn) [Example 14, 7β-[2-(5-Amino-1,2,4-Thiadiazol-3-yl)-(Z)-2-Fluoromethoxyiminoacetamido]-3-[(E)-3-(Carbamoylmethylethylmethylammonio)-1-Propenyl]-3-Cephem-4-Carboxylate]: the MIC in assay [1] was 0.2 µg/mL (≈ 0.359 µM); against Escherichia coli NIHJ, not above 0.025 µg/mL; in assay [2], 0.8 µg/mL (≈ 1.44 µM); in assay [3] it was not above 0.025 µg/mL; in assay [4], 0.1 µg/mL (≈ 0.18 µM); in the assay on Morganella morgani EP-14, not above 0.025 µg/mL.
